Experimental data as given in patent publication US8633315B2, “Substituted hydroxyethyl amine compounds as beta-secretase modulators and methods of use” (Amgen Inc., priority 2007, dated 2014).
Like-named read-outs stand apart in the source and are kept apart here.

Legend:
[1] = target: BACE1 (Homo sapiens, UniProt P56817); test: In vitro enzymatic BACE FRET (fluorescence resonance energy transfer) assay; format: biochemical
Summary of the method: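 Cleavage of a quenched peptide FRET substrate (50 nM) in 0.05 M acetate pH 4.2, 10% DMSO, 100 uM genapol, 1 h incubation. Reaction stopped by Tris neutralization; fluorescence read at excitation 488 nm / […].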

[2] = test system: Cells stably expressing Amyloid Precursor Protein (APP); test: In vitro BACE cell-based assay (HEK cell assay): Aβ40 in conditioned medium by sandwich ELISA
Summary of the method: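 APP-stably-expressing cells were grown 24 h in DMEM/10% FBS, then treated for 24 h with 10-point doses starting at 100 μM or 10 μM, at 0.1% DMSO final. Aβ40 in conditioned medium was measured by sandwich ELISA (pAb40 capture, biotinylated 6E10 detection, europium time-resolved fluorescence); IC50 from percent inhibition.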

[3] = Homo sapiens, HEK293, 24 h, Aβ40 in conditioned medium after 24 h incubation

BACE1, sequence (P56817 46-501, species assumed): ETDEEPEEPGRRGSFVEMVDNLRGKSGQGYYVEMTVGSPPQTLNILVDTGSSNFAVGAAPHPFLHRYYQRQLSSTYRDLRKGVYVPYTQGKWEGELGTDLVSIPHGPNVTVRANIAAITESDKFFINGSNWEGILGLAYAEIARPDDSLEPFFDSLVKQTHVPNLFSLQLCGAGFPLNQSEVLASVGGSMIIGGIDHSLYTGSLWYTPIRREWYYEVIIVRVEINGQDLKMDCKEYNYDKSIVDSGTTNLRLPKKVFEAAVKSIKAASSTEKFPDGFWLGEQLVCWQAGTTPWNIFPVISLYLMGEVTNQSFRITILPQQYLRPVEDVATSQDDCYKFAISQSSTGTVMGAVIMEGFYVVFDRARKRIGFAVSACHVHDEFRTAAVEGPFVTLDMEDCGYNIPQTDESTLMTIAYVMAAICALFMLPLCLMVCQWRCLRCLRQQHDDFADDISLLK

Row | Structure (SMILES) | IC50 [1] | IC50 [2, 3] | IC50 ([1]; read-out: BACE 1 FRET assay) | IC50 ([2]; Homo sapiens, HEK293) | IC50 ([2]; Aβ40 in conditioned medium after 24 h incubation)
1 | C=CC[C@H](NC(=O)[C@H](CC)OC)[C@H](O)CN[C@H]1CC2(CCC2)Oc2ncc(CC(C)(C)C)cc21 [Example 147, (2S)-N-((1S)-1-((1R)-2-(((4′S)-6′-(2,2-dimethylpropyl)-3′,4′-dihydrospiro[cyclobutane-1,2′-pyrano[2,3-b]pyridin]-4′-yl)amino)-1-hydroxyethyl)-3-buten-1-yl)-2-(methyloxy)butanamide] | 95 nM | 420 nM | – | – | –
2 | C=CC[C@H](NC(=O)c1cccc(F)c1)[C@H](O)CN[C@H]1CC2(CCC2)Oc2ncc(CC(C)(C)C)cc21 [Example 64, N-((1S)-1-((1R)-2-(((4′S)-6′-(2,2-dimethylpropyl)-3′,4′-dihydrospiro[cyclobutane-1,2′-pyrano[2,3-b]pyridin]-4′-yl)amino)-1-hydroxyethyl)-3-buten-1-yl)-3-fluorobenzamide] | 371 nM | 2580 nM | – | – | –
3 | C=CC[C@H](NC(=O)C1(OC)CC1)[C@H](O)CN[C@H]1CC2(CCC2)Oc2ncc(CC(C)(C)C)cc21 [Example 151, N-((1S)-1-((1R)-2-(((4′S)-6′-(2,2-dimethylpropyl)-3′,4′-dihydrospiro[cyclobutane-1,2′-pyrano[2,3-b]pyridin]-4′-yl)amino)-1-hydroxyethyl)-3-buten-1-yl)-1-(methyloxy)cyclopropanecarboxamide] | 454 nM | 878 nM | – | – | –
4 | C=CC[C@H](NC(=O)[C@H](C)OC)[C@H](O)CN[C@H]1CC2(CCC2)Oc2ncc(CC(C)(C)C)cc21 [Example 95, (2S)-N-((1S)-1-((1R)-2-(((4′S)-6′-(2,2-dimethylpropyl)-3′,4′-dihydrospiro[cyclobutane-1,2′-pyrano[2,3-b]pyridin]-4′-yl)amino)-1-hydroxyethyl)-3-buten-1-yl)-2-(methyloxy)propanamide] | 145 nM | 637 nM | – | – | –
5 | C=CC[C@H](NC(=O)c1cnccc1OC)[C@H](O)CN[C@H]1CC2(CCC2)Oc2ncc(CC(C)(C)C)cc21 [Example 76, N-((1S)-1-((1R)-2-(((4′S)-6′-(2,2-dimethylpropyl)-3′,4′-dihydrospiro[cyclobutane-1,2′-pyrano[2,3-b]pyridin]-4′-yl)amino)-1-hydroxyethyl)-3-buten-1-yl)-4-(methyloxy)-3-pyridinecarboxamide] | 675 nM | 802 nM | – | – | –
6 | C=CC[C@H](NC(=O)c1nccs1)[C@H](O)CN[C@H]1CC2(CCC2)Oc2ncc(CC(C)(C)C)cc21 [Example 133, N-((1S)-1-((1R)-2-(((4′S)-6′-(2,2-dimethylpropyl)-3′,4′-dihydrospiro[cyclobutane-1,2′-pyrano[2,3-b]pyridin]-4′-yl)amino)-1-hydroxyethyl)-3-buten-1-yl)-1,3-thiazole-2-carboxamide] | 106 nM | 167 nM | – | – | –
7 | C=CC[C@H](NC(=O)c1cncc(F)c1)[C@H](O)CN[C@H]1CC2(CCC2)Oc2ncc(CC(C)(C)C)cc21 [Example 56, N-((1S)-1-((1R)-2-(((4′S)-6′-(2,2-dimethylpropyl)-3′,4′-dihydrospiro[cyclobutane-1,2′-pyrano[2,3-b]pyridin]-4′-yl)amino)-1-hydroxyethyl)-3-buten-1-yl)-5-fluoro-3-pyridinecarboxamide] | 125 nM | 392 nM | – | – | –
8 | CCC[C@H](NC(=O)[C@@H]1CCCO1)[C@H](O)CN[C@H]1CC2(CCC2)Oc2c1cc(CC(C)(C)C)nc2Cl [compound 224, (2S)-N-((1S)-1-((1R)-2-(((4′S)-8′-chloro-6′-(2,2-dimethylpropyl)-3′,4′-dihydrospiro[cyclobutane-1,2′-pyrano[2,3-c]pyridin]-4′-yl)amino)-1-hydroxyethyl)butyl)tetrahydro-2-furancarboxamide] | – | – | 533 nM | 2840 nM | –
9 | C=CC[C@H](NC(=O)c1ccc(F)cn1)[C@H](O)CN[C@H]1CC2(CCC2)Oc2ncc(CC(C)(C)C)cc21 [Example 62, N-((1S)-1-((1R)-2-(((4′S)-6′-(2,2-dimethylpropyl)-3′,4′-dihydrospiro[cyclobutane-1,2′-pyrano[2,3-b]pyridin]-4′-yl)amino)-1-hydroxyethyl)-3-buten-1-yl)-5-fluoro-2-pyridinecarboxamide] | 561 nM | 4980 nM | – | – | –
10 | C=CC[C@H](NC(C)=O)[C@H](O)CN[C@H]1CC2(CCC2)Oc2ncc(C[C@@H](C)C(F)(F)F)cc21 [Example 125, N-((1S)-1-((1R)-1-hydroxy-2-(((4′S)-6′-((2R)-3,3,3-trifluoro-2-methylpropyl)-3′,4′-dihydrospiro[cyclobutane-1,2′-pyrano[2,3-b]pyridin]-4′-yl)amino)ethyl)-3-buten-1-yl)acetamide] | 199 nM | 122 nM | – | – | –
11 | C=CC[C@H](NC(=O)c1ccns1)[C@H](O)CN[C@H]1CC2(CCC2)Oc2ncc(CC(C)(C)C)cc21 [Example 130, N-((1S)-1-((1R)-2-(((4′S)-6′-(2,2-dimethylpropyl)-3′,4′-dihydrospiro[cyclobutane-1,2′-pyrano[2,3-b]pyridin]-4′-yl)amino)-1-hydroxyethyl)-3-buten-1-yl)-5-isothiazolecarboxamide] | 94 nM | 190 nM | – | – | –
12 | C=CC[C@H](NC(=O)c1ccc(F)cc1)[C@H](O)CN[C@H]1CC2(CCC2)Oc2ncc(CC(C)(C)C)cc21 [Example 58, N-((1S)-1-((1R)-2-(((4′S)-6′-(2,2-dimethylpropyl)-3′,4′-dihydrospiro[cyclobutane-1,2′-pyrano[2,3-b]pyridin]-4′-yl)amino)-1-hydroxyethyl)-3-buten-1-yl)-4-fluorobenzamide] | 172 nM | 666 nM | – | – | –
13 | C=CCC(NC(C)=O)C(O)CNC1CC2(CC(O)C2)Oc2ccc(CC(C)(C)C)cc21 [Example 116, N-((1S)-1-((1R)-2-(((2r,3′R,4S)-6-(2,2-dimethylpropyl)-3′-hydroxy-3,4-dihydrospiro[chromene-2,1′-cyclobutan]-4-yl)amino)-1-hydroxyethyl)-3-buten-1-yl)acetamide] | 15 nM | – | – | – | 15 nM
14 | C=CC[C@H](NC(=O)[C@@H](C)OC)[C@H](O)CN[C@H]1CC2(CCC2)Oc2ncc(CC(C)C)cc21 [Example 42, (2R)-N-((1S)-1-((1R)-1-hydroxy-2-(((4′S)-6′-(2-methylpropyl)-3′,4′-dihydrospiro[cyclobutane-1,2′-pyrano[2,3-b]pyridin]-4′-yl)amino)ethyl)-3-buten-1-yl)-2-(methyloxy)propanamide] | 99 nM | 269 nM | – | – | –
15 | C=CC[C@H](NC(=O)c1ccccc1F)[C@H](O)CN[C@H]1CC2(CCC2)Oc2ncc(CC(C)(C)C)cc21 [Example 99, N-((1S)-1-((1R)-2-(((4′S)-6′-(2,2-dimethylpropyl)-3′,4′-dihydrospiro[cyclobutane-1,2′-pyrano[2,3-b]pyridin]-4′-yl)amino)-1-hydroxyethyl)-3-buten-1-yl)-2-fluorobenzamide] | 339 nM | 1460 nM | – | – | –
16 | C=CC[C@H](NC(=O)COC)[C@H](O)CN[C@H]1CC2(CCC2)Oc2ncc(CC(C)(F)F)cc21 [Example 121, N-((1S)-1-((1R)-2-(((4′S)-6′-(2,2-difluoropropyl)-3′,4′-dihydrospiro[cyclobutane-1,2′-pyrano[2,3-b]pyridin]-4′-yl)amino)-1-hydroxyethyl)-3-buten-1-yl)-2-(methyloxy)acetamide] | 225 nM | 226 nM | – | – | –
17 | C=CC[C@H](NC(=O)c1cncn1C)[C@H](O)CN[C@H]1CC2(CCC2)Oc2ncc(CC(C)(C)C)cc21 [Example 131, N-((1S)-1-((1R)-2-(((4′S)-6′-(2,2-dimethylpropyl)-3′,4′-dihydrospiro[cyclobutane-1,2′-pyrano[2,3-b]pyridin]-4′-yl)amino)-1-hydroxyethyl)-3-buten-1-yl)-1-methyl-1H-imidazole-5-carboxamide] | 372 nM | 65 nM | – | – | –
18 | C=CC[C@H](NC(=O)c1cccnc1)[C@H](O)CN[C@H]1CC2(CCC2)Oc2ncc(CC(C)(C)C)cc21 [Example 96, N-((1S)-1-((1R)-2-(((4′S)-6′-(2,2-dimethylpropyl)-3′,4′-dihydrospiro[cyclobutane-1,2′-pyrano[2,3-b]pyridin]-4′-yl)amino)-1-hydroxyethyl)-3-buten-1-yl)-3-pyridinecarboxamide] | 68 nM | 135 nM | – | – | –
19 | C#CCC(NC(=O)C1CCC(=O)O1)C(O)CNC1CC2(CCC2)Oc2ncc(CC(C)(C)C)cc21 [Example 37, (2R)-N-((1S)-1-((1R)-2-(((1s,3S,4′S)-6′-(2,2-dimethylpropyl)-3′,4′-dihydrospiro[cyclobutane-1,2′-pyrano[2,3-b]pyridin]-4′-yl)amino)-1-hydroxyethyl)-3-butyn-1-yl)-5-oxotetrahydro-2-furancarboxamide] | 18 nM | 133 nM | – | – | –
20 | CCC[C@H](NC(C)=O)[C@H](O)CN[C@H]1CC2(CCC2)Oc2ncc(CC(C)(C)C)cc21 [Example 43, N-((1S)-1-((1R)-2-(((4′S)-6′-(2,2-dimethylpropyl)-3′,4′-dihydrospiro[cyclobutane-1,2′-pyrano[2,3-b]pyridin]-4′-yl)amino)-1-hydroxyethyl)butyl)acetamide] | 83 nM | 167 nM | – | – | –
21 | C=CC[C@H](NC(=O)[C@@H](C)OC)[C@H](O)CN[C@H]1CC2(CCC2)Oc2nc(F)c(CC(C)C)cc21 [Example 127, (2R)-N-((1S)-1-((1R)-2-(((4′S)-7′-fluoro-6′-(2-methylpropyl)-3′,4′-dihydrospiro[cyclobutane-1,2′-pyrano[2,3-b]pyridin]-4′-yl)amino)-1-hydroxyethyl)-3-buten-1-yl)-2-(methyloxy)propanamide] | 445 nM | 207 nM | – | – | –
